Data on 29 molecules can be found in US10988477B2 (Merck Patent GmbH, priority 2018, dated 2021).

One test addresses GCN2 kinase (Homo sapiens, UniProt Q9P2K8). The test is described as follows: GCN2 enzyme inhibition assay (Transcreener ADP2 fluorescence polarization). The class given is biochemical. To be noted: compounds of Formula II; 280 μM ATP, 4 nM GCN2 kinase. A digest of the protocol:
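Inhibition of 4 nM GCN2 was measured with compound up to 8 μM final, ATP 280 μM and (RS)7 peptide 200 μM over a 1 h, 25 °C reaction. ADP FP readout; IC50 and Ki(app) calculated from percent inhibition.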
A general note: In fluorescence polarisation assays a small probe gives low polarisation when free and higher when bound to something large.

Test [1] deals with intracellular GCN2 (phosphorylation of the GCN2 substrate eIF2α) (Homo sapiens, UniProt Q9P2K8). The test can be described thus: GCN2 cellular inhibition assay (AlphaScreen SureFire P-eIF2α Ser51, borrelidin-treated U2OS cells). To be noted: compounds of Formula II; biomarker assay, phosphorylated eIF2α Ser51 in borrelidin-treated U2OS cells. The class given is cell-based. The method in brief: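 Phospho-eIF2α (Ser51) in lysates was quantified by AlphaScreen SureFire after a 1 h, 37 °C treatment of U2OS cells with 10 μM borrelidin and compound at 4-fold dilutions starting from 40 μM final. Inhibition expressed in percent against wells stimulated by borrelidin alone.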
Sequence of intracellular GCN2 (phosphorylation of the GCN2 substrate eIF2α) (Q9P2K8 whole entry): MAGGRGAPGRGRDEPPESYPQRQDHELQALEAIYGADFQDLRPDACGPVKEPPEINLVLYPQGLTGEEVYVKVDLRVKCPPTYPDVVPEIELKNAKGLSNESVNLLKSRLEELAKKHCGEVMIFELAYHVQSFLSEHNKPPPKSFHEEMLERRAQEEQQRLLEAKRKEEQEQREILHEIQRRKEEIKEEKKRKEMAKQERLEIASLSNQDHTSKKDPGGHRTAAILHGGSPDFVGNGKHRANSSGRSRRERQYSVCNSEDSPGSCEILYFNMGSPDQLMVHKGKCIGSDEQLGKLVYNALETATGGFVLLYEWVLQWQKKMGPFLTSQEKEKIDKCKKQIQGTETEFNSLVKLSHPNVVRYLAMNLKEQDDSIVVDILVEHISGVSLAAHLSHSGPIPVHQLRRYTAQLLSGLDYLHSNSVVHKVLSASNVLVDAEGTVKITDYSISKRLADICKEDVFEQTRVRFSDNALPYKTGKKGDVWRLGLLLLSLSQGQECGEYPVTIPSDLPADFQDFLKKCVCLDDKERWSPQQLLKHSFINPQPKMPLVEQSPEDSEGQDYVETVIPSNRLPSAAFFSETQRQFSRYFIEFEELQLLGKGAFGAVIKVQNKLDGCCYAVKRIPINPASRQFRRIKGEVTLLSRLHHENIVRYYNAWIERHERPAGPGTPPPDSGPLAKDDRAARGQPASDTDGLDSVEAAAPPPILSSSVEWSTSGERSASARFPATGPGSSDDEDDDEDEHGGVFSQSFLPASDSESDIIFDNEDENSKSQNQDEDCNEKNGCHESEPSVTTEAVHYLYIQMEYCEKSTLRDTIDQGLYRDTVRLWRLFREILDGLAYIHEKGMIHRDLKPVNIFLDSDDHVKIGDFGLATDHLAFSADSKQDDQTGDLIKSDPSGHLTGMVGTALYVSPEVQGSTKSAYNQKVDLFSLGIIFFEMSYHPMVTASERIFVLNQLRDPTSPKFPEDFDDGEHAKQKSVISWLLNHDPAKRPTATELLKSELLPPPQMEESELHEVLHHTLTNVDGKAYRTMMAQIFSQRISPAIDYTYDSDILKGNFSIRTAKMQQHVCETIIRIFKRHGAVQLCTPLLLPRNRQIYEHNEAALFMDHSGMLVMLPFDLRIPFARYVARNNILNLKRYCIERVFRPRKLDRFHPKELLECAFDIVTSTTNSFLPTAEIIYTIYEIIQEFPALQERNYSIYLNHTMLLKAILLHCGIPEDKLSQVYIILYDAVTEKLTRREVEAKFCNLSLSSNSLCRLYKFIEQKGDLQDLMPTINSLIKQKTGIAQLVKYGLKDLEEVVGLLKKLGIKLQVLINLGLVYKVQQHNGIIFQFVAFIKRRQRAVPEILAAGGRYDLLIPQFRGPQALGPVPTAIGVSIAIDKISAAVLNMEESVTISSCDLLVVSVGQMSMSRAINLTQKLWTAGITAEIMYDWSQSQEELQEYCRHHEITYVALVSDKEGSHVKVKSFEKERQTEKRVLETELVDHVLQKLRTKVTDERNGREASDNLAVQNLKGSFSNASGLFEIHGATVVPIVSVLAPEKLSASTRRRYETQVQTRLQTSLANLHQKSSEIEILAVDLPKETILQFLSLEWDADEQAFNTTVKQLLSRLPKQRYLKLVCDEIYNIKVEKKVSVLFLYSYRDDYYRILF
Background: In Alpha technology, singlet oxygen from a donor bead excites a nearby acceptor bead.

By Ki is commonly meant the equilibrium dissociation constant of an inhibitor or competing ligand from its target. Low values mean higher affinity, high ones lower affinity. The IC50 is the concentration that inhibits the measured activity by half. Low values mean inhibition by little substance, high ones a need for much substance.

Sequence of GCN2 kinase (Q9P2K8 whole entry): as above

At GCN2 kinase, `CC(=O)N1CCN(c2cccc(-c3cnc4ccc(C(F)F)nn34)c2)CC1` [II-150, 1-(4-(3-(6-(Difluoromethyl)imidazo[1,2-b]pyridazin-3-yl)phenyl)piperazin-1-yl)ethanone] showed a Ki of 10 to 1000 nM. The molecule also returned a half-maximal inhibitory concentration (IC50) in test [1] of 0.5 to 5 µM.
Consider `C[S+]([O-])CC1CCCN(c2cc(-c3cnc4ccc(C(F)F)nn34)ccn2)C1` (stereo not shown) [II-151, 6-(Difluoromethyl)-3-(2-(3-((methylsulfinyl)methyl)piperidin-1-yl)pyridin-4-yl)imidazo[1,2-b]pyridazine], for which the Ki on GCN2 kinase fell in the range of 10 to 1000 nM. Besides, in test [1], the IC50 is 0.5 to 5 µM.
In the same order, the values of `CS(=O)(=O)NCC1CN(c2cc(-c3cnc4ccc(C(F)F)nn34)ncn2)CC1O` (stereo not shown) [II-152, N-((1-(6-(6-(Difluoromethyl)imidazo[1,2-b]pyridazin-3-yl)pyrimidin-4-yl)-4-hydroxypyrrolidin-3-yl)methyl)methanesulfonamide] are 10 to 1000 nM and > 5 µM.
For `CS(=O)(=O)NCC1CN(c2cc(-c3cnc4ccc(C(F)F)nn34)ccn2)CCC1(F)F` (stereo not shown) [II-153, N-[[1-[4-[6-(Difluoromethyl)imidazo[1,2-b]pyridazin-3-yl]-2-pyridyl]-4,4-difluoro-3-piperidyl]methyl]methanesulfonamide], on GCN2 kinase, the inhibitory constant (Ki) is < 10 nM. In addition, in test [1], the IC50 was < 0.5 µM.
With `CS(=O)(=O)NC[C@H]1CCCN(c2cc(-c3cnc4ccc(C(F)F)nn34)ccn2)C1` [II-154, (S)—N-((1-(4-(6-(Difluoromethyl)imidazo[1,2-b]pyridazin-3-yl)pyridin-2-yl)piperidin-3-yl)methyl)methanesulfonamide], on GCN2 kinase, the Ki is < 10 nM. For the same molecule, the IC50 in test [1] was < 0.5 µM.
In the case of `CS(=O)(=O)NC[C@@H]1CCCN(c2cc(-c3cnc4ccc(C(F)F)nn34)ccn2)C1` [II-155, (R)—N-((1-(4-(6-(Difluoromethyl)imidazo[1,2-b]pyridazin-3-yl)pyridin-2-yl)piperidin-3-yl)methyl)methanesulfonamide], the Ki at GCN2 kinase lay in the range of 10 to 1000 nM. The IC50 in test [1] was in the range of 0.5 to 5 µM.
In the same order, the values of `O=C1NCCC12CCCN(c1cc(-c3cnc4ccc(C(F)F)nn34)ccn1)C2` (stereo not shown) [II-156, 7-(4-(6-(Difluoromethyl)imidazo[1,2-b]pyridazin-3-yl)pyridin-2-yl)-2,7-diazaspiro[4.5]decan-1-one] are 10 to 1000 nM and 0.5 to 5 µM.
Consider `CS(=O)(=O)NCC1CCCN(c2cc(-c3cnc4ccc(C(F)F)nn34)ccn2)C1` (stereo not shown) [II-157, N-((1-(4-(6-(Difluoromethyl)imidazo[1,2-b]pyridazin-3-yl)pyridin-2-yl)piperidin-3-yl)methyl)methanesulfonamide], for which the inhibitory constant (Ki) at GCN2 kinase was < 10 nM. The IC50 in test [1] was < 0.5 µM.
Take `CS(=O)(=O)NCC1(O)CCCN(c2cc(-c3cnc4ccc(C(F)F)nn34)ncn2)C1` (stereo not shown) [II-158, N-((1-(6-(6-(Difluoromethyl)imidazo[1,2-b]pyridazin-3-yl)pyrimidin-4-yl)-3-hydroxypiperidin-3-yl)methyl)methanesulfonamide]: the Ki on GCN2 kinase is 10 to 1000 nM. In test [1], this molecule registered an IC50 of 0.5 to 5 µM.
On to `CC(NS(C)(=O)=O)C1CN(c2cc(-c3cnc4ccc(C(F)F)nn34)ncn2)CCO1` (stereo not shown) [II-159, N-(1-(4-(6-(6-(Difluoromethyl)imidazo[1,2-b]pyridazin-3-yl)pyrimidin-4-yl)morpholin-2-yl)ethyl)methanesulfonamide], for which the Ki on GCN2 kinase lay in the range of 10 to 1000 nM. For the same molecule, the IC50 in test [1] fell in the range of 0.5 to 5 µM.
The corresponding values for `O=C1CN(c2cc(-c3cnc4ccc(C(F)F)nn34)ccn2)CC2(CC2)N1` [II-160, 7-(4-(6-(Difluoromethyl)imidazo[1,2-b]pyridazin-3-yl)pyridin-2-yl)-4,7-diazaspiro[2.5]octan-5-one] are 10 to 1000 nM and 0.5 to 5 µM.
`FC(F)c1ccc2ncc(-c3ccnc(N4CCC5(CCNCC5)CC4)c3)n2n1` [II-161, 3-(2-(3,9-Diazaspiro[5.5]undecan-3-yl)pyridin-4-yl)-6-(difluoromethyl)imidazo[1,2-b]pyridazine] returned a Ki at GCN2 kinase of 10 to 1000 nM. In addition, the IC50 in test [1] is > 5 µM.
Molecule `OCC1CCCN(c2cc(-c3cnc4ccc(C(F)F)nn34)ccn2)C1` (stereo not shown) [II-162, (1-(4-(6-(Difluoromethyl)imidazo[1,2-b]pyridazin-3-yl)pyridin-2-yl)piperidin-3-yl)methanol] returned an inhibition constant Ki on GCN2 kinase of 10 to 1000 nM. The same molecule returned an IC50 in test [1] of 0.5 to 5 µM.
`CC(=O)N1CCCN(c2cc(-c3cnc4ccc(C(F)F)nn34)ccn2)CC1` [II-163, 1-(4-(4-(6-(Difluoromethyl)imidazo[1,2-b]pyridazin-3-yl)pyridin-2-yl)-1,4-diazepan-1-yl)ethanone] came in with a Ki at GCN2 kinase of 10 to 1000 nM. The molecule further showed a half-inhibitory concentration (IC50) in test [1] of 0.5 to 5 µM.
In the same order, the values of `O=C1CCN(c2cc(-c3cnc4ccc(C(F)F)nn34)ccn2)CCN1` [II-164, 1-(4-(6-(Difluoromethyl)imidazo[1,2-b]pyridazin-3-yl)pyridin-2-yl)-1,4-diazepan-5-one] are 10 to 1000 nM and 0.5 to 5 µM.
Take `O=C1CCC2CN(c3cc(-c4cnc5ccc(C(F)F)nn45)ccn3)CCN12` (stereo not shown) [II-167, 2-(4-(6-(Difluoromethyl)imidazo[1,2-b]pyridazin-3-yl)pyridin-2-yl)hexahydropyrrolo[1,2-a]pyrazin-6(2H)-one]: the Ki at GCN2 kinase was in the range of 10 to 1000 nM. In addition, the half-inhibitory concentration (IC50) in test [1] is > 5 µM.
In the same order, the values of `OCCC1CCN(c2cc(-c3cnc4ccc(C(F)F)nn34)ccn2)CC1` [II-168, 2-(1-(4-(6-(Difluoromethyl)imidazo[1,2-b]pyridazin-3-yl)pyridin-2-yl)piperidin-4-yl)ethanol] are 10 to 1000 nM and 0.5 to 5 µM.
The corresponding values for `OC[C@@H]1CN(c2cc(-c3cnc4ccc(C(F)F)nn34)ccn2)CCN1` [II-169, (S)-(4-(4-(6-(Difluoromethyl)imidazo[1,2-b]pyridazin-3-yl)pyridin-2-yl)piperazin-2-yl)methanol] are 10 to 1000 nM and > 5 µM.
Regarding `COCC(=O)N1CCN(c2cc(-c3cnc4ccc(C(F)F)nn34)ccn2)CC1` [II-170, 1-(4-(4-(6-(Difluoromethyl)imidazo[12-b]pyridazin-3-yl)pyridin-2-yl)piperazin-1-yl)-2-methoxyethanone], the Ki on GCN2 kinase lay in the range of 10 to 1000 nM. The IC50 in test [1] is 0.5 to 5 µM.
With `CC(=O)N1CCN(c2cncc(-c3cnc4ccc(C(F)F)nn34)c2)CC1` [II-171, 1-(4-(5-(6-(Difluoromethyl)imidazo[12-b]pyridazin-3-yl)pyridin-3-yl)piperazin-1-yl)ethanone], on GCN2 kinase, the Ki lay within 10 to 1000 nM. In test [1], the IC50 is 0.5 to 5 µM.
The corresponding values for `O=C1NCC2CN(c3cc(-c4cnc5ccc(C(F)F)nn45)ccn3)CCN12` (stereo not shown) [II-172, 7-(4-(6-(Difluoromethyl)imidazo[1,2-b]pyridazin-3-yl)pyridin-2-yl)hexahydroimidazo[1,5-a]pyrazin-3(2H)-one] are 10 to 1000 nM and 0.5 to 5 µM.
As to `O=C1NCC2CN(c3cc(-c4cnc5ccc(C(F)F)nn45)ccn3)CCN12` (stereo not shown) [II-173, 7-(4-(6-(Difluoromethyl)imidazo[1,2-b]pyridazin-3-yl)pyridin-2-yl)hexahydroimidazo[1,5-a]pyrazin-3(2H)-one], the Ki on GCN2 kinase is 10 to 1000 nM. The same molecule returned an IC50 in test [1] of 0.5 to 5 µM.
The corresponding values for `FC(F)c1ccc2ncc(-c3ccnc(N4CCn5cnnc5C4)c3)n2n1` [II-174, 7-(4-(6-(Difluoromethyl)imidazo[1,2-b]pyridazin-3-yl)pyridin-2-yl)-5,6,7,8-tetrahydro-[1,2,4]triazolo[4,3-a]pyrazine] are 10 to 1000 nM and > 5 µM.
The molecule `O=C1NCC2CN(c3cc(-c4cnc5ccc(C(F)F)nn45)ccn3)CCN12` (stereo not shown) [II-175, 7-(4-(6-(Difluoromethyl)imidazo[1,2-b]pyridazin-3-yl)pyridin-2-yl)hexahydroimidazo[1,5-a]pyrazin-3(2H)-one] came in with a Ki at GCN2 kinase of 10 to 1000 nM. This molecule also gave an IC50 in test [1] of 0.5 to 5 µM.
The molecule `CC(=O)N1CCN(c2cc(-c3cnc4ccc(C(F)F)nn34)ccn2)CC1` [II-176, 1-(4-(4-(6-(Difluoromethyl)imidazo[1,2-b]pyridazin-3-yl)pyridin-2-yl)piperazin-1-yl)ethanone] displayed a Ki on GCN2 kinase of 10 to 1000 nM. Besides, in test [1], the IC50 lay in the range of 0.5 to 5 µM.
In the same order, the values of `CC(NS(C)(=O)=O)C1CN(c2cc(-c3cnc4ccc(C(F)F)nn34)ncn2)CCO1` (stereo not shown) [II-177, N-(1-(4-(6-(6-(Difluoromethyl)imidazo[1,2-b]pyridazin-3-yl)pyrimidin-4-yl)morpholin-2-yl)ethyl)methanesulfonamide] are < 10 nM and < 0.5 µM.
As to `O=C(NCCO)N1CCCC(c2cc(-c3cnc4ccc(C(F)F)nn34)ncn2)C1` (stereo not shown) [II-178, 3-(6-(6-(difluoromethyl)imidazo[1,2-b]pyridazin-3-yl)pyrimidin-4-yl)-N-(2-hydroxyethyl)piperidine-1-carboxamide], the Ki at GCN2 kinase was 10 to 1000 nM. Further, the half-inhibitory concentration (IC50) in test [1] was 0.5 to 5 µM.
At GCN2 kinase, `CNc1ccc2ncc(-c3ccnc(N4CCCC(CNS(C)(=O)=O)C4)c3)n2n1` (stereo not shown) [II-179, N-((1-(4-(6-(Methylamino)imidazo[1,2-b]pyridazin-3-yl)pyridin-2-yl)piperidin-3-yl)methyl)methanesulfonamide] registered a Ki of 10 to 1000 nM. Also, the concentration for half-maximal inhibition (IC50) in test [1] fell in the range of 0.5 to 5 µM.
The corresponding values for `FC(F)c1ccc2ncc(-c3cc(C4CCCN(C5COC5)C4)ncn3)n2n1` (stereo not shown) [II-180, 6-(Difluoromethyl)-3-(6-(1-(oxetan-3-yl)piperidin-3-yl)pyrimidin-4-yl)imidazo[1,2-b]pyridazine] are 10 to 1000 nM and > 5 µM.
